Patent US6410575B1, “Viral treatment” (The Procter & Gamble Company, priority 1999, dated 2002)
Values after ≈ are worked out from the molar mass of the structure shown. Values joined by “and” are separate entries in the source; they are usually repeats but may differ in a detail not shown here. Equal values may be shown once. Read-outs that look alike come from different tables or passages of the source.

Tests used:
[1] = test system: Curvularia lunata; assay: Anti-fungal activity, MIC (NCCLS M-27A based); format: cell-based; conditions: growth inhibited or reduced at least 90%
Protocol: (§1) It was active against Cryptococcus neoformans and Curvularia lunata. The cidal activity for the C. neoformans is high enough that it is clear […] against this yeast. This test was conducted using a method based upon NCCLS reference method M-27A published in 1997. Solvent, medium and growth controls were set-up with the tests. Once these were read to validate the test performance, the QC fungi were read to insure they had expected results. These steps validated the test system. DMSO was used as a drug-chemical solvent. […] The 90% cut-off is necessary for azoles, which are static and not cidal. The […] or cidal level, was determined by sub-culturing a sample from each tube showing no growth.

[2] = test system: Cryptococcus neoformans; assay: Anti-fungal activity, MFC (NCCLS M-27A based); format: cell-based; conditions: cidal level
Protocol: as §1

[3] = test system: Human Herpes Virus 8 (HHV8); assay: Kaposi's sarcoma / HHV8 DNA copy number in TPA-induced BCBL-1 cells; format: cell-based; conditions: HHV8, BCBL-1 cells
Protocol: (§2) The DNA copy number and the toxicity value were measured and compared with Cidofovir. Kaposi's sarcoma (KS) is a cancer that is often found in people with weak immune systems, such as those taking immunosuppressants or those with AIDS. The exact nature of the disease is uncertain, but it is almost always found in association with HHV8.

[4] = Toxicity values in the HHV8 test; format: cell-based; conditions: human, TPA-induced BCBL-1 cells; read-out: TC50 (the source's name)
Protocol: (§3) Toxicity quantification involves the XTT-based evaluation. Assays were designed to characterize the long term effects of the compounds on virus production and to characterize the longer term effects of the compounds on virus production from chronically HIV infected cells.
as §2

[5] = test system: TPA-induced BCBL-1 cells; assay: Toxicity values in the HHV8 test; format: cell-based
Protocol: as §3, §2

[6] = test system: vero cells; assay: Herpes simplex testing, toxicity (TC50); design: unit not given beside the values
[7] = test system: BVDV; assay: BVDV testing in vitro; format: cell-based, bovine diarrhea virus; conditions: first test
Source text: DMSO had no effect, as expected.
BVDV is a bovine diarrhea virus and is a well known surrogate virus for hepatitis C which cannot be cultured in vitro.

[8] = test system: hepatitis B; assay: In vitro virus production test of hepatitis B, HEPG2 2.2.15; format: cell-based
[9] = test system: HEPG2 2.2.15; assay: Toxicity values in the hepatitis B test; format: cell-based; design: Toxicity Values, sample / Toxicity Values, mean: unit not given here

## C[C@@H]1[C@H](O)[C@@H](C)/C=C/C=C/C=C/C=C/C=C/C=C/C=C/[C@H](O[C@@H]2O[C@H](C)[C@@H](O)[C@H](N)[C@@H]2O)C[C@@H]2O[C@](O)(C[C@@H](O)C[C@@H](O)[C@H](O)CC[C@@H](O)C[C@@H](O)CC(=O)O[C@H]1C)C[C@H](O)[C@H]2C(=O)O [AmB, amphotericin B]
[1]
  MIC: 0.06 µg/mL (≈ 0.0649 µM)
[2]
  MFC: 0.5 µg/mL (≈ 0.541 µM)

## c1ccc2[nH]c(-c3cscn3)nc2c1 [Thia, thiabendazole]
[1]; read-out: MIC
  MIC: 0.03 µg/mL (≈ 0.149 µM)
[2]; read-out: MFC
  MFC: 32 µg/mL (≈ 159 µM)

## Nc1ccn(C[C@@H](CO)OCP(=O)(O)O)c(=O)n1 [Cidofovir, reference compound]
[3]
  TI: TI = 19.2
[4]
  CC50: 21.1 µM
[5]; 0.08 μM
  % cell control: 83.9%
[5]; 0.25 μM
  % cell control: 90.1%
[5]; 0.8 μM
  % cell control: 82.8%
[5]; 2.5 μM
  % cell control: 75.0%
[5]; 8 μM
  % cell control: 69.3%
[5]; 25 μM
  % cell control: 4403%

## Nc1nc2c(ncn2COCCO)c(=O)[nH]1 [Acyclovir, reference compound]
[6]
  TC50: > 1

## COC(=O)Nc1nc2ccccc2[nH]1 [Methyl, methyl 1,2-benzmimidazole carbamate or benomyl]
[1]
  MIC: 0.03 µg/mL (≈ 0.157 µM)
[2]
  MFC: 32 µg/mL (≈ 167 µM)

## NC(=O)c1ncn([C@@H]2O[C@H](CO)[C@@H](O)[C@H]2O)n1 [Ribavirin, reference compound]
[7]
  Antiviral Index (AI), TC50/IC50: 2.25

## CCC(C)n1ncn(-c2ccc(N3CCN(c4ccc(OCC5COC(Cn6cncn6)(c6ccc(Cl)cc6Cl)O5)cc4)CC3)cc2)c1=O (stereo not shown) [Itra, Itraconazole]
[2]; read-out: MFC
  MFC: 32 µg/mL (≈ 45.3 µM)

## Nc1ccn([C@@H]2CS[C@H](CO)O2)c(=O)n1 [3TC, lamivudine, reference compound]
[8]; 0.1 μg/ml
  DNA Copy Number (per 3 μl), sample: 73.0 per 3 μl
[8]; 1 μg/ml
  % virus control: 1.4%
  DNA Copy Number (per 3 μl), mean: 4.0 per 3 μl
[8]; Hepatitis B virus, HepG2 2.2.15
  IC50: 0.021 µg/mL (≈ 0.0916 µM)
[8]; hepatitis B, HEPG2 2.2.15
  IC50: 0.089 µg/mL (≈ 0.388 µM)
[9]; 0.0032 μg/ml
  % cell control: 90.8%
  Toxicity Values, mean: 1.137
  Toxicity Values, sample: 1.173 and 1.230 and 1.009
[9]; 0.01 μg/ml
  % cell control: 84.6%
  Toxicity Values, mean: 1.060
  Toxicity Values, sample: 1.081 and 1.099 and 1.001
[9]; 0.032 μg/ml
  % cell control: 94.3%
  Toxicity Values, mean: 1.181
  Toxicity Values, sample: 1.153 and 1.316 and 1.074
[9]; 0.1 μg/ml
  Toxicity Values, mean: 1.190
[9]; 0.32 μg/ml
  % cell control: 93.6%
  Toxicity Values, mean: 1.172
  Toxicity Values, sample: 1.207 and 1.227 and 1.082
[9]; 1 μg/ml
  % cell control: 106.5%
  Toxicity Values, mean: 1.334
  Toxicity Values, sample: 1.256 and 1.322 and 1.423
[9]; HEPG2 2.2.15
  TC50: > 1 µg/mL
[9]; HEPG2 2.2.15, replicate experiment
  TC50: > 1 µg/mL
